Test results taken from ChEMBL document CHEMBL1201862, “PubChem BioAssay data set” (2004).
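Interpolation was linear, between the two tested concentrations surrounding the appropriate level; five concentrations were tested over 48 hours in 96-well plates. At the GI50, growth is halved.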 Calls of active or inactive are those of the source. No stated cut-off is given here; in the data, active = GI50 up to about 1.1 µM and inactive = higher.

What was measured:
Assay in all cases: DTP human tumour cell line panel, 48 h
[1] = test system: A498
[2] = test system: HT-29
[3] = test system: HCT-116
[4] = test system: COLO 205
[5] = test system: SNB-19
[6] = test system: CAKI-1
[7] = test system: TK-10
[8] = test system: SK-MEL-2
[9] = test system: OVCAR-8
[10] = test system: UO-31
[11] = test system: SR
[12] = test system: HOP-92
[13] = test system: M14
[14] = test system: SN12C
[15] = test system: KM12
[16] = test system: EKVX
[17] = test system: MOLT-4
[18] = test system: A549
[19] = test system: NCI/ADR-RES
[20] = test system: MDA-MB-231

Measured: GI50

C=CCNC(=O)/C=C\C(=O)O
inactive: [1] > 100 µM | [2] > 100 µM | [3] > 100 µM | [4] > 100 µM | [5] > 100 µM | [6] > 100 µM | [7] > 100 µM | [8] > 100 µM | [9] > 100 µM | [10] > 100 µM | [11] > 100 µM | [12] > 100 µM | [13] > 100 µM | [14] > 100 µM | [15] > 100 µM | [16] > 100 µM | [17] > 100 µM | [18] > 100 µM

COC(=O)C(CC12CC3CC(CC(C3)C1)C2)NC(=O)C(N)CC(=O)O (configuration not stated)
inactive: [2] > 100 µM | [3] > 100 µM | [19] > 100 µM | [4] > 100 µM | [5] > 100 µM | [6] > 100 µM | [7] > 100 µM | [8] > 100 µM | [9] > 100 µM | [10] > 100 µM | [11] > 100 µM | [12] > 100 µM | [14] > 100 µM | [15] > 100 µM | [16] > 100 µM | [17] > 100 µM | [18] > 100 µM

CC(=O)Nc1ccccc1-c1nc2ccccc2nc1C
inactive: [1] > 100 µM | [2] > 100 µM | [3] > 100 µM | [4] > 100 µM | [5] > 100 µM | [6] > 100 µM | [7] > 100 µM | [8] > 100 µM | [9] > 100 µM | [10] 61.9 µM | [11] > 100 µM | [12] > 100 µM | [13] > 100 µM | [14] > 100 µM | [15] > 100 µM | [16] > 100 µM | [17] > 100 µM | [18] > 100 µM

Cc1cc(O)c(C(C)C)cc1CN1CCCCC1
inactive: [1] > 100 µM | [2] > 100 µM | [3] > 100 µM | [19] > 100 µM | [4] > 100 µM | [5] > 100 µM | [6] > 100 µM | [7] > 100 µM | [9] > 100 µM | [10] > 100 µM | [20] > 100 µM | [12] > 100 µM | [13] > 100 µM | [14] > 100 µM | [15] > 100 µM | [16] > 100 µM | [17] > 100 µM | [18] > 100 µM

CCOC(=O)CCC1(C(=O)OCC)CCCC1=O (configuration not stated)
inactive: [1] > 100 µM | [2] > 100 µM | [3] 68.4 µM | [4] > 100 µM | [5] > 100 µM | [6] > 100 µM | [7] > 100 µM | [8] > 100 µM | [9] > 100 µM | [10] > 100 µM | [11] 25.4 µM | [12] > 100 µM | [13] > 100 µM | [14] > 100 µM | [15] > 100 µM | [16] > 100 µM | [17] > 100 µM | [18] > 100 µM

NCC#CCNCCCN1CC1
inactive: [1] > 100 µM | [2] > 100 µM | [3] > 100 µM | [19] > 100 µM | [4] > 100 µM | [5] > 100 µM | [6] > 100 µM | [7] > 100 µM | [8] > 100 µM | [9] > 100 µM | [11] > 100 µM | [12] > 100 µM | [13] > 100 µM | [14] > 100 µM | [15] > 100 µM | [16] > 100 µM | [18] > 100 µM

NC(=S)NS(=O)(=O)c1ccc(Cl)cc1Cl
inactive: [2] > 100 µM | [3] > 100 µM | [19] > 100 µM | [4] > 100 µM | [5] > 100 µM | [6] > 100 µM | [7] > 100 µM | [8] > 100 µM | [9] > 100 µM | [10] > 100 µM | [20] > 100 µM | [12] > 100 µM | [13] > 100 µM | [14] > 100 µM | [15] > 100 µM | [16] > 100 µM | [17] > 100 µM | [18] > 100 µM

O=C1CCN(CCC(F)(F)C(F)(F)C(F)(F)C(F)(F)C(F)(F)C(F)(F)F)C(=S)N1CCC(F)(F)C(F)(F)C(F)(F)C(F)(F)C(F)(F)C(F)(F)F
inactive: [1] > 100 µM | [2] > 100 µM | [3] > 100 µM | [4] > 100 µM | [5] > 100 µM | [6] > 100 µM | [7] > 100 µM | [9] > 100 µM | [10] > 100 µM | [20] > 100 µM | [11] > 100 µM | [12] > 100 µM | [13] > 100 µM | [14] > 100 µM | [15] > 100 µM | [16] > 100 µM | [17] > 100 µM | [18] > 100 µM
